Measurements: US20090304615A1, “TRICYCLIC COMPOUNDS AS MELANOGENESIS MODIFIERS AND USES THEREOF” (priority 2007, published 2009)
Counter-ions that a name gives are not always drawn.

System: cultured murine melanocytes (melan-a)
Experiment: Melanin assay in cultured murine melanocytes (melan-a)
Type: cell-based
Details: Mus musculus, melan-a cells; for inhibition at 1 µM / inhibition at 5 µM: melanin formation, 72 hours of incubation; for IC50: melanin synthesis, read-out: IC50 range
Method: The Spectrum Collection library consisting of 2000 drug compounds or natural products was screened to identify novel pigmentation inhibitors or stimulators in cultured murine melanocytes (melan-a). Compounds were dissolved in dimethylsulfoxide (DMSO) to a final concentration of 10 mM. Screening was performed with cultured melanocytes in 24-well plates followed by melanin assay (see below). […] DMSO was used as a negative control and the widely used depigmenting agent, hydroquinone, was used as a positive control on every plate. […] All compounds were added at the indicated final concentrations. Cells were harvested after 72 hours of incubation, and melanin assay was performed. For further test and mechanism of action studies, the compounds were purchased from either Sigma or Microsoure. These compounds were dissolved in dimethylsulfoxide (DMSO) to a final concentration of 10 mM, and were tested for their effect on melanin synthesis at the indicated final concentrations. For the primary and secondary screening, cells were harvested and dissolved in 200 μl of 2N NaOH in 20% DMSO at 70° C. A 180-μl aliquot of the resulting solution was measured for absorbance at 490 nm. […] The lysates were centrifuged at 14,000 rpm for 10 minutes at 4° C. BCA protein assay kit (Pierce) was used to measure the protein concentrations of the supernatants, and bovine serum albumin was used as a standard. […] A 180-μl aliquot of the resulting solution was measured for absorbance at 490 nm. The melanin contents were normalized to the total amount of protein.

Row | SMILES | inhibition at 1 µM | inhibition at 5 µM | IC50
1 | CNCCC=C1c2ccccc2CCc2ccccc21 [compound 1, Nortriptyline] | 39% | 58% | 1000 to 2500 nM
2 | CN(C)CCC=C1c2ccccc2CCc2ccccc21 [compound 2, Amitriptyline hydrochloride] | 51% | 65% | < 1000 nM
3 | CC(CN(C)C)CN1c2ccccc2CCc2ccccc21 (centres unmarked) [compound 3, Trimpramine maleate] | 28% | 48% | 1000 to 2500 nM
4 | CN(C)CCCN1c2ccccc2CCc2ccccc21 [compound 5, Imipramine hydrochloride] | 34% | 60% | < 1000 nM
5 | CNCCCN1c2ccccc2CCc2ccccc21 [compound 6, Despramine hydrochloride] | – | – | 2500 to 5000 nM
6 | CNCCCC1c2ccccc2C=Cc2ccccc21 [compound 8, Protriptyline hydrochloride] | – | – | 5000 to 10000 nM
